Experimental data from US20090081717A1, “Compositions and Methods For Signal Generation” (priority 2007, published 2009).
Where two headings read alike, the source gives them in different places.

Key:
alkaline phosphatase = details: 1×10^−12 moles alkaline phosphatase in 0.1 M Tris, pH 9.0, 45 sec at room temperature, measured 1 sec
Protocol: A substrate solution containing 0.8 mg/ml 3-indoxyl phosphate bis(2-amino-2-methyl-1,3-propanediol) salt (Biosynth International) and 0.4 mg/ml lucigenin (Sigma Aldrich) was prepared in 0.1 M Tris buffer, pH 9.0. 10 ul of the sample (blank (0.1 M Tris, pH 9.0 or 1×10^−12 moles alkaline phosphatase in 0.1 M Tris, pH 9.0) was added to plastic tubes. 50 ul of the substrate containing 0% DMSO, 0.1% DMSO (v/v), 1% DMSO) (v/v), 10% DMSO (v/v) and 20% DMSO (v/v) was added to respective tubes and water was added to the substrate in appropriate percentage as a control. The reaction was incubated for 45 sec at room temperature and chemiluminescence was measured for 1 sec using an Optocomp I (MGM) luminometer.

[1] = Chemiluminescence of indoxyl phosphate substrate solution with blank sample (no enzyme); format: biochemical; details: blank sample 0.1 M Tris, pH 9.0, no enzyme

SMILES: CC(N)(CO)CO.CC(N)(CO)CO.O=P(O)(O)Oc1c[nH]c2ccccc12 [3-indoxyl phosphate bis(2-amino-2-methyl-1,3-propanediol) salt]
- Alkaline phosphatase chemiluminescence (alkaline phosphatase; substrate with 0 vol % DMSO): 895,068 Relative light unit
- Alkaline phosphatase chemiluminescence (alkaline phosphatase; substrate with 0.1 vol % DMSO): 899,207 Relative light unit
- Alkaline phosphatase chemiluminescence (alkaline phosphatase; substrate with 1 vol % DMSO): 1,101,369 Relative light unit
- Alkaline phosphatase chemiluminescence (alkaline phosphatase; substrate with 10 vol % DMSO): 1,909,745 Relative light unit
- Alkaline phosphatase chemiluminescence (alkaline phosphatase; substrate with 20 vol % DMSO): 2,375,681 Relative light unit
- Blank chemiluminescence ([1]; substrate with 0 vol % DMSO): 472 Relative light units
- Blank chemiluminescence ([1]; substrate with 0.1 vol % DMSO): 511 Relative light units
- Blank chemiluminescence ([1]; substrate with 1 vol % DMSO): 569 Relative light units
- Blank chemiluminescence ([1]; substrate with 10 vol % DMSO): 1214 Relative light units
- Blank chemiluminescence ([1]; substrate with 20 vol % DMSO): 1917 Relative light units
